The test system of one assay is striatal D2 receptors. The assay can be described thus: Radioreceptor binding, striatal D2 receptors labeled with [3H]spiperone. On the set-up: species or system rat. The note with it: compared with dihydrexidine. The procedure:
FIG. 3 is a graphic representation of the affinity of dinoxyline (circles), dinapsoline (diamonds), and chlorpromazine for striatal D2 receptors labeled with [^3H]spiperone. Unlabeled dinoxyline, dinapsoline, or chlorpromazine was added to determine the specific binding of each compound to the D2 receptor.
(§1) Frozen rat striata was homogenized by seven manual strokes in a Wheaton Teflon-glass homogenizer in 8 ml ice cold 50 mM HEPES buffer with 4.0 mM MgCl2, (pH 7.4). The tissue was centrifuged at 27,000×g for 10 min, the supernatant was discarded, and the pellet was homogenized (5 strokes) and resuspended in ice cold buffer and centrifuged again. The final pellet was suspended at a concentration of approximately 2.0 mg wet weight/ml. The amount of tissue added to each assay tube was 1.0 mg, in a final assay volume of 1.0 ml. D1 receptors were labeled with [^3H] SCH23390 (0.30 nM). D2 receptors were labeled with [^3H] spiperone (0.07 nM); unlabeled ketanserin (50 nM) was added to mask binding to 5HT2 sites. Total binding was defined as radioligand bound in the absence of any competing drug. Nonspecific binding was estimated by adding unlabeled SCH23390 (1 μM) or unlabeled chlorpromazine ([…]) for D1 and D2 receptor binding assays, respectively. […] After shaking for 30 minutes, radioactivity was determined on a LKB Wallac 1219 RackBeta liquid scintillation counter (Wallac, Gaithersburg, Md.). […]

Assay [1] concerns rat unilateral 6-OHDA-lesion model. Put plainly: Rat unilateral 6-OHDA-lesion model, contralateral rotation. The assay is classed as in vivo. The text has this:
(§2) Accordingly dinoxyline and its derivatives have potential clinical utility in Parkinson's Disease and in other conditions where perturbation of dopamine receptors may be therapeutic.

A further assay deals with T1, D1 receptors (Macaca mulatta, UniProt O77680).
T1 construct: expressed in transfected cells; host or cells: C-6 glioma cells (C-6-mD1)
The assay can be described thus: cAMP production in C-6-mD1 cells (cloned expressed primate D1A receptors). The assay is classed as cell-based. The procedure: Radioreceptor and function studies were also conducted for cloned human or monkey receptors transfected into one of several cell lines [e.g., C-6 glioma or Chinese hamster ovary (CHO) cells]. Cells were grown in appropriate medium, and at confluency, harvested for membrane preparation. Flasks of cells in the same passage were scraped using a rubber policeman and collected in 50 ml centrifuge tubes. These were spun for 10 min at 1200×g, to pellet whole cells. The supernatant was discarded and then five ml of PBS (phosphate buffered saline)/flask was added to the centrifuge tubes to resuspend the cells. The tubes were then centrifuged again for […] at 28,500×g. The PBS was removed and the pellet suspended in a solution of 10% DMSO in PBS. Cells were homogenized with a polytron for 10 seconds on setting 5. One ml aliquots were stored at −80° C. until use in receptor binding studies. Aliquots contained approximately 1 mg/ml of protein, as measured using the BCA protein assay reagent (Pierce, Rockford, Ill.). Agonist intrinsic activity was assessed by the ability of selected compounds to stimulate adenylate cyclase, as measured by cAMP formation in whole cells. In C-6 cells, for example, the dose response curve for each drug was fit using a sigmoid function to determine maximal effective concentration (top plateau of curve) as well as EC50s. All drugs were run in the same assay in order to decrease variability across cell passages. Confluent plates of cells were incubated with drugs dissolved in DMEM-H plain media supplemented with 20 mM Hepes, 0.01% ascorbic acid and 500 μM iso-butyl-methyl xanthine (IBMX; pH 7.2; media A). The final volume for each well was 500 μl. In addition to the dose response curves run for each drug, basal levels of cAMP and isoproterenol-stimulated (through endogenous β2 receptors, positive control) cAMP levels were evaluated for each plate. Each condition was run in duplicate wells. Following a 10 min incubation at 37° C., cells were rinsed briefly with media, and the reaction stopped with the addition of 500 μl 0.1 N HCl. Cells were then allowed to chill for 5-10 min at 4° C., the wells were scraped and the volume placed into 1.7 ml centrifuge tubes. An additional 1 ml of 0.1 N HCl was added to each tube, for a final volume of 1.5 ml/tube. Tubes were vortexed briefly, and then spun in a BHG Hermle Z 230 M microcentrifuge for five min at 15,000×g to eliminate large cellular particles. Cyclic AMP levels for each sample were determined as described above. Data were calculated for each sample, and expressed initially as pmol/mg/min cAMP. […] Normalized dose-response curves were analyzed by nonlinear regression using an algorithm for sigmoid curves in the curvefitting program InPlot (Graphpad, Inc.; San Francisco, Calif.). […]

The subject of assay [2] is marmosets having moderately-severe MPTP-induced dopamine denervation. Put plainly: Marmosets with moderately-severe MPTP-induced dopamine denervation. The assay is classed as in vivo, marmoset. Particulars: preliminary studies.
Excerpt: as §2

The next assay deals with D1 and D2 receptors. Put plainly: D1:D2 selectivity from receptor binding. The procedure:
as §1, with “respectively. Triplicate determinations were made for each drug concentration in each assay. Assay tubes were incubated at 37° C. for 15 minutes. Binding was terminated by filtering with ice cold buffer on a Skatron 12 well cell harvester (Skatron, Inc., Sterling, Va.) using glass fiber filter mats (Skatron no. 7034).” for “respectively.”

We go through one molecule from patent publication US6916832B2, “Chromeno[4,3,2-de]isoquinolines as potent dopamine receptor ligands” (University of North Carolina at Chapel Hill, priority 1999, dated 2005).

T1 sequence (O77680 whole entry): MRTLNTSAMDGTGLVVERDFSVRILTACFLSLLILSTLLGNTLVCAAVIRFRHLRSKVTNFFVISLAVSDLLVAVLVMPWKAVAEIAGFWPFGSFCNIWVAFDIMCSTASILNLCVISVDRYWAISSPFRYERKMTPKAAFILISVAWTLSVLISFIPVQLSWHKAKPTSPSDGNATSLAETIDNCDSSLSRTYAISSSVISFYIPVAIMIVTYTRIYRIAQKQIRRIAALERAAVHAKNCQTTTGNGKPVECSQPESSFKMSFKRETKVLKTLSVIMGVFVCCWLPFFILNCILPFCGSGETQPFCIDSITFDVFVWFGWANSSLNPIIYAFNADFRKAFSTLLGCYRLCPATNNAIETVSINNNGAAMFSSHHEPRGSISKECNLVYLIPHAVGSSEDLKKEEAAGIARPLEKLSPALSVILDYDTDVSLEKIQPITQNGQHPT

Turning to `Br.Oc1ccc2c(c1O)Oc1cccc3c1C2CNC3` (racemic) [dinoxyline, (±)-8,9-dihydroxy-1,2,3,11b-tetrahydrochromeno[4,3,2-de]isoquinoline hydrobromide], the “affinity for D2-like receptors (in words)” value in the assay on striatal D2 receptors is listed as “greater affinity”. In addition, the “duration of action relative to a similar dose of dihydrexidine” value in assay [1] (same route (subcutaneous)) is given as “more than twice”. The contralateral rotation entry in assay [1] (single subcutaneous dose) is “significant rotation”. Also, at D1 receptors (C-6-mD1 cells / cloned expressed primate D1A receptors, relative to dopamine, hydrobromide), the “agonist intrinsic activity at D1 receptors” value was “full agonist activity”. Also, on D1 receptors (C-6-mD1 cells, read-out: EC50 in stimulating synthesis of cAMP via D1 receptors), the EC50 was less than 0.03 µM. The “antiparkinson effects (locomotion, arousal, Parkinson signs)” value in assay [2] is “significant antiparkinson effects”. In addition, the “D1:D2 selectivity” value in the assay with D1 and D2 receptors was “equally high affinity for both receptors”.
